Like-named read-outs stand apart in the source and are kept apart here.
Columns and labels:
[1] = target: T1, TAS2R20 (Homo sapiens, UniProt P59543); assay: Calcium mobilization assay, HEK293T-Gα16gust44 cells expressing TAS2R20; settings: maximal concentration tested: sucralose 100 mM, neotame 30 µM, Ace-K 300 mM, RebA 4 mM, RebM 4 mM, mogroside V 5 mM, erythritol 200 mM, D-allulose 500 mM, thaumatin 100 mM
T1 sequence (P59543 1-309): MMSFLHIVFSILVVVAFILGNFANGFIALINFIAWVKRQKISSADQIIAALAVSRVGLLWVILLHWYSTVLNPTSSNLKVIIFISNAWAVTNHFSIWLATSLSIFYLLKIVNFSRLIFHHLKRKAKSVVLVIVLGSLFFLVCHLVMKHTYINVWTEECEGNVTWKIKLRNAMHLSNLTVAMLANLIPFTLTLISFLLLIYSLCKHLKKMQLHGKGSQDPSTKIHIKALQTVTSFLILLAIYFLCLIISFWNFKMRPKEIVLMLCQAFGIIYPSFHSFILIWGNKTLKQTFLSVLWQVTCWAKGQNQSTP
Description: (§1) Different concentration ranges were tested depending on the injected sweet compound. […] All of the concentration-receptor combinations were measured in triplicate, and each experiment was repeated at least 3 times. The Ca^2+ change was expressed as a fractional change in fluorescent light intensity: ΔF/F = (F − F0)/F0, where F was the fluorescent light intensity at each point, and F0 was the value of fluorescent light emitted prior to stimulus application. To calculate dose–response relationships, the changes in fluorescence upon stimulus application were averaged, mock-subtracted and baseline-corrected. The resulting obtained dose–response data were adjusted by using a 4-parameter logistic equation.

[2] = target: T2, TAS2R60 (Homo sapiens, UniProt P59551); assay: Calcium mobilization assay, HEK293T-Gα16gust44 cells expressing TAS2R60; settings: maximal concentration tested: sucralose 100 mM, neotame 30 µM, Ace-K 300 mM, RebA 4 mM, RebM 4 mM, mogroside V 5 mM, erythritol 200 mM, D-allulose 500 mM, thaumatin 100 mM
T2 sequence (P59551 1-318): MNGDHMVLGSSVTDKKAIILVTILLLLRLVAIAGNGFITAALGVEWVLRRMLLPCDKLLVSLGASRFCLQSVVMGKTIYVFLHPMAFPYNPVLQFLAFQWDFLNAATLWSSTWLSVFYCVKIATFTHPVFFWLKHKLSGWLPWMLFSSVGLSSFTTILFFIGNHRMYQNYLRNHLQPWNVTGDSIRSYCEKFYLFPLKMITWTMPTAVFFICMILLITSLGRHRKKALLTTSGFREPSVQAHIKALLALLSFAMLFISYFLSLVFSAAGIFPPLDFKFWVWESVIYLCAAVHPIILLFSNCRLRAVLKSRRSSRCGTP
Description: Different concentration ranges were tested depending on the injected sweet compound. […] All of the concentration-receptor combinations were measured in triplicate, and each experiment was repeated at least 3 times. The Ca^2+ change was expressed as a fractional change in fluorescent light intensity: ΔF/F = (F − F0)/F0, where F was the fluorescent light intensity at each point, and F0 was the value of fluorescent light emitted prior to stimulus application. To calculate dose–response relationships, the changes in fluorescence upon stimulus application were averaged, mock-subtracted and baseline-corrected. The resulting obtained dose–response data were adjusted by using a 4-parameter logistic equation. The half-maximal effective concentration (EC50) was calculated by using SigmaPlot software (Systat Software, San Jose, CA, USA) as described in supplemental Supplementary Figs. S1, S2, and S3.

[3] = target: T3, TAS1R2/TAS1R3 (Homo sapiens, UniProt Q7RTX0+Q8TE23); assay: Calcium mobilization assay, HEK293T-Gα16gust44 cells expressing the sweet taste receptor
T3 sequence (Q8TE23 20-839): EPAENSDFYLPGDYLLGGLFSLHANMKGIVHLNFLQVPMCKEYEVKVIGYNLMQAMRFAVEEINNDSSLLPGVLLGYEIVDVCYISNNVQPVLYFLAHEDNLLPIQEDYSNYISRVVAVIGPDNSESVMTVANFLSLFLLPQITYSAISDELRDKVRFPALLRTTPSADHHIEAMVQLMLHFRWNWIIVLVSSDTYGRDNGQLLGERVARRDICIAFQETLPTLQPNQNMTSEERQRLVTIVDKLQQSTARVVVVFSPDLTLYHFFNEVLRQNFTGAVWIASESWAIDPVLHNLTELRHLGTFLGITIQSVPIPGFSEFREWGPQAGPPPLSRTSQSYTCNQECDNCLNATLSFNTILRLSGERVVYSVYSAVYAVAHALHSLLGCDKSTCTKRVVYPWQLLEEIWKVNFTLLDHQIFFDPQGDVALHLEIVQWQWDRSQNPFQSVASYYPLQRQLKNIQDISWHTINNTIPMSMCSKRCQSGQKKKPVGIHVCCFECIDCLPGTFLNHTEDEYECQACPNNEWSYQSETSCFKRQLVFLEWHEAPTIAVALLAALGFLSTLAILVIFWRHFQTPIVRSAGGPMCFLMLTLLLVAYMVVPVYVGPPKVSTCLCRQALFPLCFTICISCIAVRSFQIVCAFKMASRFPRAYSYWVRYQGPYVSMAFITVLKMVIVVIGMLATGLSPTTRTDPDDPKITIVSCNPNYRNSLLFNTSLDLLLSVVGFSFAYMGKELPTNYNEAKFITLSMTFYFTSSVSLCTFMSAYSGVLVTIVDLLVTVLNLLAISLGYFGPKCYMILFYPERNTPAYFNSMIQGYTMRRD
T3 sequence (Q7RTX0 21-852): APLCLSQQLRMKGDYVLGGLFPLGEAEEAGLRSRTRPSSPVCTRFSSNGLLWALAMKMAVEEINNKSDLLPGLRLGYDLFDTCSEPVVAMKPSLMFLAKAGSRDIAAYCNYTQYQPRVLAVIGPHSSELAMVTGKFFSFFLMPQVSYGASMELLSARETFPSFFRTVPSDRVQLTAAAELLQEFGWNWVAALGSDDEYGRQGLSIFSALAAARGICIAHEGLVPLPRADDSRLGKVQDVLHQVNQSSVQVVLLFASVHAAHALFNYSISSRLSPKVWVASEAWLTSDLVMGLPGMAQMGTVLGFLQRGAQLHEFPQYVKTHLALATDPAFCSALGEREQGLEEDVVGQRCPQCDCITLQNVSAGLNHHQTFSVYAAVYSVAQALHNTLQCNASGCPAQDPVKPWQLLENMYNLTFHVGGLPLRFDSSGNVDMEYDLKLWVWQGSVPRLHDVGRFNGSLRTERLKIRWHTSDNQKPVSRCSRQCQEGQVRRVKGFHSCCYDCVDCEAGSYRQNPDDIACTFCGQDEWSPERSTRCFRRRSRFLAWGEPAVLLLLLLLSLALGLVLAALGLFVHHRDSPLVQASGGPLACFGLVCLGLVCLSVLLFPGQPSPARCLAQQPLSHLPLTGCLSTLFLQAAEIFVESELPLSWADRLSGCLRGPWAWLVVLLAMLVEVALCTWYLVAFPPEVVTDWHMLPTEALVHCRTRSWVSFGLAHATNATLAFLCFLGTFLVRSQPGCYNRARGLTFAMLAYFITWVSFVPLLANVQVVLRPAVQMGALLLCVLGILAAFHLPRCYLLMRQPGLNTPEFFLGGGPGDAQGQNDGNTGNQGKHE
Description: as §1

[4] = target: T4, TAS2R16 (Homo sapiens, UniProt Q9NYV7); assay: Calcium mobilization assay, HEK293T-Gα16gust44 cells expressing TAS2R16; settings: for Response of TAS2R16: maximal concentration tested: sucralose 100 mM, neotame 30 µM, Ace-K 300 mM, RebA 4 mM, RebM 4 mM, mogroside V 5 mM, erythritol 200 mM, D-allulose 500 mM, thaumatin 100 mM
T4 sequence (Q9NYV7 1-291): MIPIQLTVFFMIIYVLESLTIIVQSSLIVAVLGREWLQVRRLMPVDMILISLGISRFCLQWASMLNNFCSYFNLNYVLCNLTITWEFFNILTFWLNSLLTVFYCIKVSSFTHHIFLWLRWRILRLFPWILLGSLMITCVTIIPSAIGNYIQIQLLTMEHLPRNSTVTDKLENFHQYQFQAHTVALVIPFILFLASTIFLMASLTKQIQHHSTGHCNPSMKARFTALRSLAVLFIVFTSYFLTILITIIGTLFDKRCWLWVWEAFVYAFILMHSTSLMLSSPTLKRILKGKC
Description: as §1

[5] = maximal signal amplitude, sweet compound alone
[6] = read-out: EC50 value, sweet compound alone
[7] = RebM in the presence of mogroside V 0 µM
[8] = neotame in the presence of D-allulose 0 mM
[9] = mogroside V in the presence of thaumatin 0 µM

Row | Response of TAS2R20 [1] | Response of TAS2R60 [2] | Max ΔF/F0 [3, 5] | Response of TAS2R16 [4] | EC50 [3, 6] | Molecule | other results
1 | − | − | 0.06 ± 0.01 | − |  | OC[C@@H](O)[C@@H](O)CO [Erythritol, erythritol] | EC50 [3]: 56000 ± 10000 µM
2 | − | − | 0.13 ± 0.01 | − | 78 ± 11 µM | OC[C@H]1O[C@H](O[C@]2(CCl)O[C@H](CCl)[C@@H](O)[C@@H]2O)[C@H](O)[C@@H](O)[C@H]1Cl [Sucralose, sucralose] | concentration at which maximal signal amplitude is reached [3]: below 1 mM; Max ΔF/F0 ([3]; sucralose in the presence of Ace-K 0 µM): 0.13 ± 0.01; Max ΔF/F0 ([3]; sucralose in the presence of Ace-K 10 µM): 0.15 ± 0.01; Max ΔF/F0 ([3]; sucralose in the presence of Ace-K 30 µM): 0.12 ± 0.01; Max ΔF/F0 ([3]; sucralose in the presence of Ace-K 100 µM): 0.14 ± 0.01
3 | − | − | 0.12 ± 0.01 | − |  | thaumatin | activation of the sweet taste receptor by the compound alone ([3]; concentrations less than 3 µM): unable to activate the sweet taste receptor on its own
4 | − | − | 0.16 ± 0.01 | − | 34 ± 2 µM | C=C1C[C@@]23CC[C@H]4[C@@](C)(CCC[C@@]4(C)C(=O)O[C@@H]4O[C@H](CO)[C@@H](O)[C@H](O[C@@H]5O[C@H](CO)[C@@H](O)[C@H](O)[C@H]5O)[C@H]4O[C@@H]4O[C@H](CO)[C@@H](O)[C@H](O)[C@H]4O)[C@@H]2CC[C@]1(O[C@@H]1O[C@H](CO)[C@@H](O)[C@H](O[C@@H]2O[C@H](CO)[C@@H](O)[C@H](O)[C@H]2O)[C@H]1O[C@@H]1O[C@H](CO)[C@@H](O)[C@H](O)[C@H]1O)C3 [RebM, Rebaudioside M] | EC50 [3, 7]: 36 ± 2 µM; Max ΔF/F0 [3, 7]: 0.17 ± 0.01; Max ΔF/F0 ([3]; RebM in the presence of mogroside V 0.03 µM): 0.16 ± 0.01; Max ΔF/F0 ([3]; RebM in the presence of mogroside V 1 µM): 0.18 ± 0.01; Max ΔF/F0 ([3]; RebM in the presence of mogroside V 3 µM): 0.17 ± 0.01; Max ΔF/F0 ([3]; RebM in the presence of mogroside V 5 µM): 0.12 ± 0.01; Max ΔF/F0 ([3]; RebM in the presence of mogroside V 10 µM): 0.12 ± 0.01
5 | − | − | 0.16 ± 0.01 | − | 2.26 ± 0.23 µM | COC(=O)[C@H](Cc1ccccc1)NC(=O)[C@H](CC(=O)O)NCCC(C)(C)C [Neotame] | EC50 [3, 8]: 2.37 ± 0.34 µM; Max ΔF/F0 [3, 8]: 0.16 ± 0.01; Max ΔF/F0 ([3]; neotame in the presence of D-allulose 3 mM): 0.17 ± 0.01; Max ΔF/F0 ([3]; neotame in the presence of D-allulose 10 mM): 0.21 ± 0.01; Max ΔF/F0 ([3]; neotame in the presence of D-allulose 30 mM): 0.17 ± 0.00; increase in sweetness potency ([3]; neotame with addition of D-allulose (3 to 30 mM), leftward shift of dose–response curves): approximately 2.5 fold
6 | − | − |  | − |  | CC1=CC(=O)NS(=O)(=O)O1 [Ace-K, acesulfame-K] | EC50 [3]: 410 ± 94 µM

Row | Molecule | Response of TAS2R20 [1] | Response of TAS2R60 [2] | Max ΔF/F0 [3, 5] | Response of TAS2R16 [4] | EC50 [3, 6] | other results
7 | O=C(CO)[C@H](O)[C@H](O)[C@H](O)CO [D-allulose] | − | − | 0.50 ± 0.12 | + |  | activation of the sweet taste receptor by the compound alone ([3]; 3 to 30 mM): did not activate the sweet taste receptor; concentrations at which TAS2R16 was activated [4]: > 300 mM
8 | C[C@H](CC[C@@H](O[C@@H]1O[C@H](CO[C@@H]2O[C@H](CO)[C@@H](O)[C@H](O)[C@H]2O)[C@@H](O)[C@H](O)[C@H]1O[C@@H]1O[C@H](CO)[C@@H](O)[C@H](O)[C@H]1O)C(C)(C)O)[C@H]1CC[C@@]2(C)[C@@H]3CC=C4[C@@H](CC[C@H](O[C@@H]5O[C@H](CO[C@@H]6O[C@H](CO)[C@@H](O)[C@H](O)[C@H]6O)[C@@H](O)[C@H](O)[C@H]5O)C4(C)C)[C@]3(C)[C@H](O)C[C@]12C [Mogroside V, mogroside V] | − | − | 0.14 ± 0.01 | + | 23 ± 2 µM | concentration of saturation of the sweet taste receptor [3]: ~500 µM; decrease in the EC50 values ([3]; in the presence of thaumatin 0.3 to 10 µM): 3 fold; decrease in the EC50 value ([3]; mogroside V in the presence of 10 µM thaumatin): 4 fold; EC50 [3, 9]: 29 ± 4 µM; Max ΔF/F0 [3, 9]: 0.14 ± 0.01; Max ΔF/F0 ([3]; mogroside V in the presence of thaumatin 0.03 µM): 0.19 ± 0.01; Max ΔF/F0 ([3]; mogroside V in the presence of thaumatin 1 µM): 0.18 ± 0.04; Max ΔF/F0 ([3]; mogroside V in the presence of thaumatin 3 µM): 0.18 ± 0.01; Max ΔF/F0 ([3]; mogroside V in the presence of thaumatin 10 µM): 0.17 ± 0.01; EC50 ([4]; read-out: TAS2R16 EC50): 1180 ± 440 µM
